Assay results taken from ChEMBL document CHEMBL4219139, “Enantiomeric trans β-aryl-δ-iodo-γ-lactones derived from 2,5-dimethylbenzaldehyde induce apoptosis in canine lymphoma cell lines by downregulation of anti-apoptotic Bcl-2 family members Bcl-xL and Bcl-2” (2018).
Activity calls are given as the source filed them.

What was measured:
Canis lupus familiaris [1] = organism: Canis lupus familiaris; test: Cytotoxic activity against canine GL1 cells assessed as cell death after 24 hrs by propidium iodide staining-based FACS analysis; type: functional
Jurkat [2] = test: Induction of apoptosis in human Jurkat cells assessed as activation of caspase-3/7 at 50 ug/ml after 24 hrs by flow cytometry; type: functional
CLBL-1 [3] = test: Induction of apoptosis in canine CLBL1 cells assessed as cleavage of PARP1 at 50 ug/ml after 24 hrs by Western blot analysis; type: functional, cell-based; conditions: Canis lupus familiaris
CLB70 [4] = test: Induction of apoptosis in canine CLB70 cells preincubated with Z-VAD-fmk pan-caspase inhibitor assessed as activation of caspase-3/7 at 50 ug/ml after 24 hrs by flow cytometry; type: functional, cell-based; conditions: Canis lupus familiaris
Canis lupus familiaris [5] = organism: Canis lupus familiaris; test: Induction of apoptosis in canine GL1 cells assessed as downregulation of Bcl-xl expression at 50 ug/ml after 24 hrs by Western blot analysis; type: functional, cell-based
CLB70 [6] = test: Cytotoxic activity against canine CLB70 cells assessed as cell death at 50 ug/ml after 24 hrs by propidium iodide staining-based FACS analysis; type: functional, Canis lupus familiaris
CLB70 [7] = test: Cytotoxic activity against canine CLB70 cells assessed as cell death after 24 hrs by propidium iodide staining-based FACS analysis; type: functional; conditions: Canis lupus familiaris
Jurkat [8] = test: Induction of apoptosis in human Jurkat cells preincubated with Z-VAD-fmk pan-caspase inhibitor assessed as activation of caspase-3/7 at 50 ug/ml after 24 hrs by flow cytometry; type: functional, cell-based
Jurkat [9] = test: Cytotoxic activity against human Jurkat cells assessed as cell death at 50 ug/ml after 24 hrs by propidium iodide staining-based FACS analysis; type: functional
Jurkat [10] = test: Induction of apoptosis in human Jurkat cells assessed as cleavage of Bid at 25 to 50 ug/ml after 24 hrs by Western blot analysis; type: functional, cell-based
Canis lupus familiaris [11] = organism: Canis lupus familiaris; test: Induction of apoptosis in canine GL1 cells assessed as downregulation of Bcl-xl expression at 25 ug/ml after 24 hrs by Western blot analysis; type: functional, cell-based
CLBL-1 [12] = test: Cytotoxic activity against canine CLBL1 cells assessed as cell death after 24 hrs by propidium iodide staining-based FACS analysis; type: functional; conditions: Canis lupus familiaris
Jurkat [13] = test: Induction of apoptosis in human Jurkat cells assessed as downregulation of Bcl-2 expression at 50 ug/ml after 24 hrs by Western blot analysis; type: functional, cell-based
Canis lupus familiaris [14] = organism: Canis lupus familiaris; test: Induction of apoptosis in canine GL1 cells preincubated with Z-VAD-fmk pan-caspase inhibitor assessed as activation of caspase-3/7 at 50 ug/ml after 24 hrs by flow cytometry; type: functional, cell-based
CLB70 [15] = test: Induction of apoptosis in canine CLB70 cells assessed as downregulation of Bcl-2 expression at 50 ug/ml after 24 hrs by Western blot analysis; type: functional, cell-based; conditions: Canis lupus familiaris
CLBL-1 [16] = test: Induction of apoptosis in canine CLBL1 cells assessed as downregulation of Bcl-2 expression at 50 ug/ml after 24 hrs by Western blot analysis; type: functional, cell-based; conditions: Canis lupus familiaris
Jurkat [17] = test: Induction of apoptosis in human Jurkat cells assessed as downregulation of Bcl-xl expression at 50 ug/ml after 24 hrs by Western blot analysis; type: functional, cell-based
CLB70 [18] = test: Induction of apoptosis in canine CLB70 cells at 50 ug/ml after 24 hrs by Annexin V/FITC staining based FACS analysis; type: functional, cell-based; conditions: Canis lupus familiaris
CLB70 [19] = test: Induction of apoptosis in canine CLB70 cells assessed as activation of caspase-3/7 at 50 ug/ml after 24 hrs by flow cytometry; type: functional, Canis lupus familiaris
CLB70 [20] = test: Induction of apoptosis in canine CLB70 cells assessed as downregulation of Bcl-xl expression at 50 ug/ml after 24 hrs by Western blot analysis; type: functional, cell-based; conditions: Canis lupus familiaris
Canis lupus familiaris [21] = organism: Canis lupus familiaris; test: Induction of apoptosis in canine GL1 cells assessed as cleavage of Bid at 25 to 50 ug/ml after 24 hrs by Western blot analysis; type: functional, cell-based
CLBL-1 [22] = test: Induction of apoptosis in canine CLBL1 cells assessed as activation of caspase-3/7 at 50 ug/ml after 24 hrs by flow cytometry; type: functional, Canis lupus familiaris
CLBL-1 [23] = test: Induction of apoptosis in canine CLBL1 cells preincubated with Z-VAD-fmk pan-caspase inhibitor assessed as activation of caspase-3/7 at 50 ug/ml after 24 hrs by flow cytometry; type: functional, cell-based; conditions: Canis lupus familiaris
CLBL-1 [24] = test: Cytotoxic activity against canine CLBL1 cells assessed as cell death at 50 ug/ml after 24 hrs by propidium iodide staining-based FACS analysis; type: functional, Canis lupus familiaris
CLBL-1 [25] = test: Induction of apoptosis in canine CLBL1 cells assessed as downregulation of Bcl-xl expression at 50 ug/ml after 24 hrs by Western blot analysis; type: functional, cell-based; conditions: Canis lupus familiaris
Jurkat [26] = test: Induction of apoptosis in human Jurkat cells assessed as cleavage of PARP1 at 25 to 50 ug/ml after 24 hrs by Western blot analysis; type: functional, cell-based
CLBL-1 [27] = test: Induction of apoptosis in canine CLBL1 cells at 50 ug/ml after 24 hrs by Annexin V/FITC staining based FACS analysis; type: functional, cell-based; conditions: Canis lupus familiaris
CLB70 [28] = test: Induction of apoptosis in canine CLB70 cells assessed as cleavage of Bid at 25 to 50 ug/ml after 24 hrs by Western blot analysis; type: functional, cell-based; conditions: Canis lupus familiaris
Jurkat [29] = test: Cytotoxic activity against human Jurkat cells assessed as cell death after 24 hrs by propidium iodide staining-based FACS analysis; type: functional
Canis lupus familiaris [30] = organism: Canis lupus familiaris; test: Induction of apoptosis in canine GL1 cells at 50 ug/ml after 24 hrs by Annexin V/FITC staining based FACS analysis; type: functional, cell-based
Jurkat [31] = test: Induction of apoptosis in human Jurkat cells at 50 ug/ml after 24 hrs by Annexin V/FITC staining based FACS analysis; type: functional, cell-based
Jurkat [32] = test: Induction of apoptosis in human Jurkat cells assessed as downregulation of Bcl-xl expression at 25 ug/ml after 24 hrs by Western blot analysis; type: functional, cell-based
[33] = Induction of apoptosis in canine GL1 cells assessed as activation of caspase-3/7 at 50 ug/ml after 24 hrs by flow cytometry; type: functional, Canis lupus familiaris
[34] = Cytotoxic activity against canine GL1 cells assessed as cell death at 50 ug/ml after 24 hrs by propidium iodide staining-based FACS analysis; type: functional, Canis lupus familiaris
Canis lupus familiaris [35] = organism: Canis lupus familiaris; test: Induction of apoptosis in canine GL1 cells assessed as downregulation of Bcl-2 expression at 50 ug/ml after 24 hrs by Western blot analysis; type: functional, cell-based
CLB70 [36] = test: Induction of apoptosis in canine CLB70 cells assessed as cleavage of PARP1 at 25 to 50 ug/ml after 24 hrs by Western blot analysis; type: functional, cell-based; conditions: Canis lupus familiaris
CLBL-1 [37] = test: Induction of apoptosis in canine CLBL1 cells assessed as cleavage of Bid at 25 to 50 ug/ml after 24 hrs by Western blot analysis; type: functional, cell-based; conditions: Canis lupus familiaris
Jurkat [38] = test: Induction of apoptosis in human Jurkat cells assessed as downregulation of Bcl-xl expression at 25 to 50 ug/ml after 24 hrs by Western blot analysis; type: functional, cell-based
CLBL-1 [39] = test: Induction of apoptosis in canine CLBL1 cells assessed as downregulation of Bcl-xl expression at 25 to 50 ug/ml after 24 hrs by Western blot analysis; type: functional, cell-based; conditions: Canis lupus familiaris
CLB70 [40] = test: Induction of apoptosis in canine CLB70 cells assessed as downregulation of Bcl-2 expression at 25 to 50 ug/ml after 24 hrs by Western blot analysis; type: functional, cell-based; conditions: Canis lupus familiaris
Jurkat [41] = test: Induction of apoptosis in human Jurkat cells assessed as downregulation of Bcl-2 expression at 25 to 50 ug/ml after 24 hrs by Western blot analysis; type: functional, cell-based
CLBL-1 [42] = test: Induction of apoptosis in canine CLBL1 cells assessed as downregulation of Bcl-2 expression at 25 to 50 ug/ml after 24 hrs by Western blot analysis; type: functional, cell-based; conditions: Canis lupus familiaris
Canis lupus familiaris [43] = organism: Canis lupus familiaris; test: Induction of apoptosis in canine GL1 cells assessed as downregulation of Bcl-xl expression at 25 to 50 ug/ml after 24 hrs by Western blot analysis; type: functional, cell-based
Canis lupus familiaris [44] = organism: Canis lupus familiaris; test: Induction of apoptosis in canine GL1 cells assessed as downregulation of Bcl-2 expression at 25 to 50 ug/ml after 24 hrs by Western blot analysis; type: functional, cell-based
CLB70 [45] = test: Induction of apoptosis in canine CLB70 cells assessed as downregulation of Bcl-xl expression at 25 to 50 ug/ml after 24 hrs by Western blot analysis; type: functional, cell-based; conditions: Canis lupus familiaris

Measured: Activity

Cc1ccc(C)c([C@H]2CC(=O)O[C@@H]2[C@@H](C)I)c1
inactive: CLB70 [4] | Jurkat [8] | Jurkat [10] | Canis lupus familiaris [11] | Canis lupus familiaris [14] | CLBL-1 [16] | CLBL-1 [23] | CLBL-1 [25] | Jurkat [32]
66.93%: Jurkat [2]
55.8%: CLB70 [19]
60%: CLB70 [6] | Jurkat [9] | [34]
78.89%: CLBL-1 [22]
active: Canis lupus familiaris [1] Dose-dependent effect | CLBL-1 [3] | Canis lupus familiaris [5] | CLB70 [7] Dose-dependent effect | CLBL-1 [12] Dose-dependent effect | Jurkat [13] | CLB70 [15] | Jurkat [17] | CLB70 [18] | CLB70 [20] | Canis lupus familiaris [21] | Jurkat [26] | CLBL-1 [27] | CLB70 [28] | Jurkat [29] Dose-dependent effect | Canis lupus familiaris [30] | Jurkat [31] | Canis lupus familiaris [35] | CLB70 [36]
80%: CLBL-1 [24]
58.47%: [33]

Cc1ccc(C)c([C@@H]2CC(=O)O[C@H]2[C@H](C)I)c1
32.35%: Jurkat [2]
25%: CLB70 [6] | Jurkat [9] | [34]
active: Canis lupus familiaris [1] Dose-dependent effect | CLBL-1 [3] | CLB70 [7] Dose-dependent effect | CLBL-1 [37] | Jurkat [38] | CLBL-1 [12] Dose-dependent effect | CLB70 [40] | Jurkat [41] | CLB70 [18] | Jurkat [26] | Canis lupus familiaris [43] | CLBL-1 [27] | Jurkat [29] Dose-dependent effect | Canis lupus familiaris [44] | Canis lupus familiaris [30] | Jurkat [31] | CLB70 [45] | CLB70 [36]
73.53%: CLBL-1 [22]
inactive: CLB70 [4] | Jurkat [8] | Jurkat [10] | CLBL-1 [39] | Canis lupus familiaris [14] | CLBL-1 [42] | CLBL-1 [23]
80%: CLBL-1 [24]
30.04%: CLB70 [19]
20.35%: [33]
